# Reference: patent US20120024744A1, “Soil-related and/or Crop-related Applications for Chlorine Dioxide” (DHARMA IP, LLC, priority 2010, published 2012)
# Assay: Enhanced solubility of beta-cyclodextrin in water containing ClO2
# Type: physicochemical
# Conditions: 100 g slurries, 5% (w/w) in 8000 ppm ClO2 vs ultrapure water, 200 rpm, 3 days
smiles,measurement,value
OC[C@H]1O[C@@H]2O[C@H]3[C@H](O)[C@@H](O)[C@@H](O[C@H]4[C@H](O)[C@@H](O)[C@@H](O[C@H]5[C@H](O)[C@@H](O)[C@@H](O[C@H]6[C@H](O)[C@@H](O)[C@@H](O[C@H]7[C@H](O)[C@@H](O)[C@@H](O[C@H]8[C@H](O)[C@@H](O)[C@@H](O[C@H]1[C@H](O)[C@H]2O)O[C@@H]8CO)O[C@@H]7CO)O[C@@H]6CO)O[C@@H]5CO)O[C@@H]4CO)O[C@@H]3CO [beta-cyclodextrin],"weight of dried undissolved beta-cyclodextrin, ClO2 containing slurry less than control slurry",0.32 g
